Data on 7 compounds can be found in patent US11254686B1 (Corvus Pharmaceuticals, Inc., priority 2017, dated 2022).

As a reminder, the IC50 is the midpoint of a concentration-inhibition curve. The hepatocyte CLint is a measure of how fast metabolising enzymes remove a compound, apart from limits set by blood flow.

One data set addresses adenosine A2B receptor (Homo sapiens (Human), UniProt P29275). Nature of the data set: Adenosine receptor activity assay (Table 1), A2B activity. It counts as biochemical. As to conditions: for Ratio: A2A activity to A2B activity (A2A/A2B); for IC50: read-out: Ave A2B cAMP IC50.
The target of another data set is adenosine A2A receptor (Homo sapiens (Human), UniProt P29274). Put plainly: Adenosine receptor activity assay (Table 1), A2A activity. The class given is biochemical. The settings on record: read-out: Ave A2A cAMP IC50.
Data set [1] addresses T1, adenosine A1 receptor (Homo sapiens (Human), UniProt P30542). Put plainly: A1 cAMP IC50 assay (Table 1). It counts as biochemical.
In data set [2] the target is T2, adenosine A3 receptor (Homo sapiens (Human), UniProt P0DMS8). Nature of the data set: A3 cAMP IC50 assay (Table 1). It counts as biochemical.
For the next data set, the target named is CYP3A4 (Homo sapiens (Human), UniProt P08684). Put plainly: CYP450 inhibition at 10 μM, CYP3A4. The settings on record: human, 10 μM, read-out: CYP 450 % INH @ 10 μM. The class given is in vitro ADME.
The next data set deals with CYP2D6 (Homo sapiens (Human), UniProt P10635). Nature of the data set: CYP450 inhibition at 10 μM, CYP2D6. It counts as in vitro ADME. The settings on record: read-out: CYP 450 % INH @ 10 μM.
Data set [3] is described as follows: Liver microsome (LM) intrinsic clearance, rat. The class given is in vitro ADME. Background: Microsomes from liver hold many membrane-bound enzymes, among them those of drug oxidation.
A short description of data set [4]: Liver microsome (LM) intrinsic clearance, human. It counts as in vitro ADME.
Data set [5] in a line: Hepatocyte (Hep) intrinsic clearance, rat. It counts as in vitro ADME. The settings on record: hepatocytes.
Data set [6] can be described thus: Hepatocyte (Hep) intrinsic clearance, dog. It counts as in vitro ADME. The settings on record: hepatocytes.
Data set [7] in a line: Hepatocyte (Hep) intrinsic clearance, monkey. The class given is in vitro ADME. The settings on record: hepatocytes.
Data set [8] in a line: Hepatocyte (Hep) intrinsic clearance, human. As to conditions: hepatocytes. The class given is in vitro ADME.
Data set [9] has as its target T1, adenosine A1 receptor. Nature of the data set: Adenosine receptor activity assay (Table 1), A1 cAMP. It counts as cell-based.
In data set [10] the target is T2, adenosine A3 receptor. Nature of the data set: Adenosine receptor activity assay (Table 1), A3 cAMP. The class given is cell-based.
The nature of data set [11]: Liver microsome intrinsic clearance, rat. The class given is in vitro ADME.
Data set [12] is described as follows: Liver microsome intrinsic clearance, human. It counts as in vitro ADME.
The next data set relates to CYP 450. Nature of the data set: CYP450 inhibition at 10 μM. It counts as in vitro ADME.
A short description of data set [13]: Hepatocyte intrinsic clearance, rat. The class given is in vitro ADME.
A short description of data set [14]: Hepatocyte intrinsic clearance, human. The class given is in vitro ADME.

CYP3A4, sequence (P08684 whole entry): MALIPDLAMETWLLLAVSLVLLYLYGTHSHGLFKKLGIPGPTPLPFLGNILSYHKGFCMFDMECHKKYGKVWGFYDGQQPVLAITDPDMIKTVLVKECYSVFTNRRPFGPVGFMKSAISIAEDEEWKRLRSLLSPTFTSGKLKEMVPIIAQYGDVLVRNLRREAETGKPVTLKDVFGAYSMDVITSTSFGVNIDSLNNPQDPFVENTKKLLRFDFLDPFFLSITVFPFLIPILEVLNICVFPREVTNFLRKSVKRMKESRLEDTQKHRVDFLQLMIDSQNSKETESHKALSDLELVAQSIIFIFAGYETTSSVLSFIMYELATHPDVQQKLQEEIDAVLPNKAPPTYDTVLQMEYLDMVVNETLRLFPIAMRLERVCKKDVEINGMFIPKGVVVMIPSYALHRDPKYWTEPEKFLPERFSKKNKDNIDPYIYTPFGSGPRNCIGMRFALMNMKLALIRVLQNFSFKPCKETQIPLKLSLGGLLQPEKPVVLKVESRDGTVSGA
adenosine A2A receptor, sequence (P29274 whole entry): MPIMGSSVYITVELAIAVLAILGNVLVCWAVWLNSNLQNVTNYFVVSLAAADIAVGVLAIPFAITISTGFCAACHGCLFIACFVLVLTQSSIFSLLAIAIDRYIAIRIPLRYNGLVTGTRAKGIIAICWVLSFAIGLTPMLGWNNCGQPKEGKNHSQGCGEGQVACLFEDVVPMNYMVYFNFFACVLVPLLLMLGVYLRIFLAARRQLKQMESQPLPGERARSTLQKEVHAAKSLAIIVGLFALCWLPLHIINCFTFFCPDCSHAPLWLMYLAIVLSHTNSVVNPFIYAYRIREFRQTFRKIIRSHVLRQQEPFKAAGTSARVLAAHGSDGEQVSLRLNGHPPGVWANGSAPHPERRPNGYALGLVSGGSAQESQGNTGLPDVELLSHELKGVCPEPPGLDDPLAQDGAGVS
T2 sequence (P0DMS8 whole entry): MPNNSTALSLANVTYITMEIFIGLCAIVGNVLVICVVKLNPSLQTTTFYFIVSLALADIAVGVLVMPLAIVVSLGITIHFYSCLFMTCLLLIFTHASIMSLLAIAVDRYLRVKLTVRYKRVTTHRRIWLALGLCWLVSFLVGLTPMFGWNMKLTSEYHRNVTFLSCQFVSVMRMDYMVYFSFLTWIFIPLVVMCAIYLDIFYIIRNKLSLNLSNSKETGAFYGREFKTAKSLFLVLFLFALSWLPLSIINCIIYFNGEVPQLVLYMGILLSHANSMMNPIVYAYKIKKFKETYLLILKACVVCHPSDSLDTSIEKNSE
CYP2D6, sequence (P10635 whole entry): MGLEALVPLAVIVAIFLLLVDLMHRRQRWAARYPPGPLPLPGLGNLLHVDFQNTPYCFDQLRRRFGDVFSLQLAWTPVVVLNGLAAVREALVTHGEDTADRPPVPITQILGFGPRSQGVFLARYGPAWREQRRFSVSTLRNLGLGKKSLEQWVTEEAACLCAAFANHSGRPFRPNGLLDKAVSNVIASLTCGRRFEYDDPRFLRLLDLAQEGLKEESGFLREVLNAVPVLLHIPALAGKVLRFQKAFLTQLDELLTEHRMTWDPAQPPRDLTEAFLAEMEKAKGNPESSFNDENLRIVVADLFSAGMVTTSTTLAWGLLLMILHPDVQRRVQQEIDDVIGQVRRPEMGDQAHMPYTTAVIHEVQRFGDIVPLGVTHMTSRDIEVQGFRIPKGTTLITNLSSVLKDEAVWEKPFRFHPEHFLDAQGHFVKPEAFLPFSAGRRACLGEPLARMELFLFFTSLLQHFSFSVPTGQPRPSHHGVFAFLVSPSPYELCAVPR
adenosine A2B receptor, sequence (P29275 whole entry): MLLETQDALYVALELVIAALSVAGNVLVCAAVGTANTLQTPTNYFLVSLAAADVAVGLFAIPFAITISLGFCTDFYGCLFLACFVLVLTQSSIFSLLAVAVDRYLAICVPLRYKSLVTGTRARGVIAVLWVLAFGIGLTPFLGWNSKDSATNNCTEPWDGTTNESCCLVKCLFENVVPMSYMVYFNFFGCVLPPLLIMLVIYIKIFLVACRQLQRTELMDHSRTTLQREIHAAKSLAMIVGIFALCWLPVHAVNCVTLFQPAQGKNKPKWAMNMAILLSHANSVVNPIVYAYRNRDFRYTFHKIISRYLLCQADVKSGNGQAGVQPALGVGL
T1 sequence (P30542 whole entry): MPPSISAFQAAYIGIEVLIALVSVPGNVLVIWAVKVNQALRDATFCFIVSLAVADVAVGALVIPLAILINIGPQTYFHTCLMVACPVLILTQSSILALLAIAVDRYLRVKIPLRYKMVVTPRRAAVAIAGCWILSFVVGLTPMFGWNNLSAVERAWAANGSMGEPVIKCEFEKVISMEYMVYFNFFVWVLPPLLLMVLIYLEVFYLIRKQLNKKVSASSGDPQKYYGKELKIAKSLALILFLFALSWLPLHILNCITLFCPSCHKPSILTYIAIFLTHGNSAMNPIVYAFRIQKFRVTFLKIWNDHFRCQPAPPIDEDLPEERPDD

As for `C[C@H](Nc1nc(C(=O)N2CCCC2)c2sccc2n1)c1ccccn1` [Example Z10, (S)-(2-((1-(Pyridin-2-yl)ethyl)amino)thieno[3,2-d]pyrimidin-4-yl)(pyrrolidin-1-yl)methanone], the Ratio at adenosine A2B receptor turned out to be 7.99. The IC50 is less than 10 nM at adenosine A2B receptor, 50 to 100 nM on adenosine A2A receptor, more than 500 nM against adenosine A1 receptor [1] and more than 500 nM against adenosine A3 receptor [2]. Also, the figures for the inhibition at 10 µM on CYP3A4 and on CYP2D6 were 0% and 8%, respectively. Besides, the entries for the “LM CLint” value in data set [3] and in data set [4] were 15.05 μL/min/mg/protein and 16.29 μL/min/mg/protein, respectively. Further, the intrinsic clearance (hepatocyte CLint) in [5] is 26.7 µL/min/1e6 cells; in data set [6], 46.1 µL/min/1e6 cells; in data set [7], 17.9 µL/min/1e6 cells; in [8], 6.53 µL/min/1e6 cells.

Regarding `C[C@H](Nc1nc(C(=O)N2CC[C@H](O)C2)c2sccc2n1)c1cccnc1` [Example Z28, ((S)-3-Hydroxypyrrolidin-1-yl)(2-(((S)-1-(pyridin-3-yl)ethyl)amino)thieno[3,2-d]pyrimidin-4-yl)methanone], the Ratio at adenosine A2B receptor is given as 39.41. In addition, the half-inhibitory concentration (IC50) on adenosine A2B receptor is 50 to 100 nM; at adenosine A2A receptor, more than 500 nM; against adenosine A1 receptor [1] it was more than 500 nM; against adenosine A3 receptor [2], more than 500 nM. Moreover, the inhibition at 10 µM at CYP3A4 worked out at 35%; on CYP2D6, 11%. The “LM CLint” value amounted to 9.33 μL/min/mg/protein in data set [3] and 4.55 μL/min/mg/protein in data set [4]. Further, the intrinsic metabolic clearance (hepatocyte CLint) in data set [5] is 34.7 µL/min/1e6 cells; in [6], 2.59 µL/min/1e6 cells; in [7], 0.62 µL/min/1e6 cells; in data set [8], 3.48 µL/min/1e6 cells.

For the compound `C[C@H](Nc1nc(C(=O)N2CC[C@@H](F)C2)c2sccc2n1)c1ccccn1` [Example Z52, ((R)-3-Fluoropyrrolidin-1-yl)(2-(((S)-1-(pyridin-2-yl)ethyl)amino)thieno[3,2-d]pyrimidin-4-yl)methanone], at adenosine A2B receptor, the Ratio amounted to 5.74. In addition, the IC50 at adenosine A2B receptor was less than 10 nM; at adenosine A2A receptor, 10 to 50 nM; against adenosine A1 receptor [1] it was more than 500 nM; against adenosine A3 receptor [2], more than 500 nM. The inhibition at 10 µM at CYP3A4 came to 7%; on CYP2D6, 0%. Further, the “LM CLint” value in data set [3] turned out to be 11.87 μL/min/mg/protein; in [4], 11.20 μL/min/mg/protein. Further, the hepatocyte CLint in [5] amounted to 45.3 µL/min/1e6 cells; in [6], 41.7 µL/min/1e6 cells; in data set [7], 18.7 µL/min/1e6 cells; in data set [8], 12.7 µL/min/1e6 cells.

As to `C[C@H](Nc1nc(C(=O)N2CC[C@H](O)C2)c2sccc2n1)c1ccccn1` [Example Z58, ((S)-3-Hydroxypyrrolidin-1-yl)(2-(((S)-1-(pyridin-2-yl)ethyl)amino)thieno[3,2-d]pyrimidin-4-yl)methanone], the Ratio at adenosine A2B receptor is on record as 15.14. The half-maximal inhibitory concentration (IC50) on adenosine A2B receptor is 50 to 100 nM; at adenosine A2A receptor it was more than 500 nM; at adenosine A1 receptor [1], more than 500 nM; on adenosine A3 receptor [2], more than 500 nM. The values for the inhibition at 10 µM at CYP3A4 and at CYP2D6 were 0% and 10%, respectively. Besides, the “LM CLint” value was found to be 0.0 μL/min/mg/protein in [3] and 5.60 μL/min/mg/protein in data set [4]. The hepatocyte CLint in data set [5] was determined as 4.46 µL/min/1e6 cells; in data set [6], 1.73 µL/min/1e6 cells; in data set [7], 0.19 µL/min/1e6 cells; in data set [8] it was 2.21 µL/min/1e6 cells.

For the compound `C[C@H](Nc1nc(C(=O)NCCc2ccc(O)cc2)c2sccc2n1)c1cncc(F)c1` [Example Z340, (S)-2-((1-(5-Fluoropyridin-3-yl)ethyl)amino)-N-(4-hydroxyphenethyl)thieno[3,2-d]pyrimidine-4-carboxamide], the Ratio on adenosine A2B receptor was determined as 95.47. Further, the concentration for half-maximal inhibition (IC50) was less than 10 nM at adenosine A2B receptor, 100 to 500 nM at adenosine A2A receptor, more than 500 nM at adenosine A1 receptor [9] and more than 500 nM on adenosine A3 receptor [10]. Also, the “LM CLint” value worked out at 504.21 μL/min/mg/protein in data set [11] and 258.52 μL/min/mg/protein in data set [12].

Regarding `C[C@H](Nc1nc(C(=O)N2CC[C@@H](O)C2)c2sc(C(F)(F)F)cc2n1)c1cncc(F)c1` [Example Z391, (2-(((S)-1-(5-Fluoropyridin-3-yl)ethyl)amino)-6-(trifluoromethyl)thieno[3,2-d]pyrimidin-4-yl)((R)-3-hydroxypyrrolidin-1-yl)methanone], the Ratio at adenosine A2B receptor was found to be 288.73. The concentration for half-maximal inhibition (IC50) on adenosine A2B receptor is less than 10 nM; at adenosine A2A receptor, more than 500 nM; against adenosine A1 receptor [9], more than 500 nM; at adenosine A3 receptor [10] it was more than 500 nM. The “LM CLint” value in data set [11] is 7.73 μL/min/mg/protein; in [12], 12.73 μL/min/mg/protein.

On to “(6-Amino-2-(((S)-1-(5-fluoropyridin-3-yl)ethyl)amino)thieno[3,2-d]pyrimidin-4-yl)((S)-3-hydroxypyrrolidin-1-yl)methanone [Example Z212]”, for which, at adenosine A2B receptor, the Ratio stood at 149.76. For the same compound, the IC50 at adenosine A2B receptor was less than 10 nM; on adenosine A2A receptor, more than 500 nM; at adenosine A1 receptor [9], more than 500 nM; at adenosine A3 receptor [10], more than 500 nM. Further, the “CYP 450 % INH @ 10 μM” value in the data set on CYP 450 stood at 19.6%. Also, the “Hep CLint” value in data set [13] is listed as 5.95 mL/min/10^6 cells; in data set [14], 1.64 mL/min/10^6 cells.
